The values below come from patent publication US20070128217A1 (priority 2003, published 2007).

For assay [1], the system named is antibodies in sera from SARS patients (sera 1a, 1b, 2, 6, 37, 62, London, SARS-yellow, SARS-green). It counts as binding, human. Set-up: Binding of serum 6 to linear peptides of protein X1 of SARS-CoV Urbani / Binding of serum 37 to linear peptides of protein X1 of SARS-CoV Urbani / Binding of serum 6 to looped/cyclic peptide (PEPSCAN-ELISA) / Binding of serum 37 to looped/cyclic peptide (PEPSCAN-ELISA) / Binding of serum 37 to looped/cyclic peptides of protein X1 of SARS-CoV Urbani / Binding of serum 6 to linear peptides of protein X2 / Binding of serum 37 to linear peptides of protein X2 / Binding of serum 37 to looped/cyclic peptides of protein X2 of SARS-CoV Urbani / Binding of serum 6 to linear peptides of protein M of SARS-CoV Urbani / Binding of serum 37 to linear peptides of protein M of SARS-CoV Urbani / Binding of serum 6 to looped/cyclic peptides of protein M of SARS-CoV Urbani / Binding of serum 37 to looped/cyclic peptides of protein M of SARS-CoV Urbani / Binding of serum 6 to linear peptides of protein X3 of SARS-CoV Urbani / Binding of serum 37 to linear peptides of protein X3 of SARS-CoV Urbani / Binding of serum 37 to looped/cyclic peptides of protein X3 of SARS-CoV Urbani / Binding of serum 6 to linear peptides of protein X4 of SARS-CoV Urbani / Binding of serum 37 to linear peptides of protein X4 of SARS-CoV Urbani / Binding of serum 37 to looped/cyclic peptides of protein X4 of SARS-CoV Urbani / Binding of serum 6 to linear peptides of protein X5 of SARS-CoV Urbani / Binding of serum 37 to linear peptides of protein X5 of SARS-CoV Urbani / Binding of serum 37 to looped/cyclic peptides of protein X5 of SARS-CoV Urbani / Binding of serum 6 to linear peptides of protein N of SARS-CoV Urbani / Binding of serum 37 to linear peptides of protein N of SARS-CoV Urbani / Binding of serum 6 to linear peptide (PEPSCAN-ELISA) / Binding of serum 1a to looped/cyclic peptides of protein N of SARS-CoV Urbani / Binding of serum 1b to looped/cyclic peptides of protein N of SARS-CoV Urbani / Binding of serum 2 to looped/cyclic peptides of protein N of SARS-CoV Urbani / Binding of serum 6 to looped/cyclic peptides of protein N of SARS-CoV Urbani / Binding of serum 37 to looped/cyclic peptides of protein N of SARS-CoV Urbani / Binding of serum 62 to looped/cyclic peptides of protein N of SARS-CoV Urbani / Binding of serum London to looped/cyclic peptides of protein N of SARS-CoV Urbani / Binding of serum SARS-green to looped/cyclic peptides of protein N of SARS-CoV Urbani: unit not given here.

For assay [2], the system named is control sera (pooled serum of ten healthy LUMC hospital workers; commercial negative donor pooled serum from the Dutch bloodbank). Format: binding, human. More on the design: Binding of Control serum LUMC to linear peptides / Binding of Control serum Blood-bank to linear peptides / Binding of Control serum LUMC to looped peptides / Binding of Control Serum Blood-Bank to Looped peptides / Binding of Control serum LUMC to linear peptides of the protein M of SARS-CoV Urbani / Binding of Control serum Blood-bank to linear peptides of the protein M of SARS-CoV Urbani / Binding of Control serum LUMC to looped peptides of the protein M of SARS-CoV Urbani / Binding of Control Serum Blood-Bank to Looped peptides of the protein M of SARS-CoV Urbani: unit not given here.

Assay [3] deals with rabbit serum obtained by immunizing a rabbit with the SARS-CoV strain Frankfurt 1. Format: binding. Set-up: Binding of a rabbit serum to linear peptides / Binding of a rabbit serum to looped peptides / Rabbit serum linear peptides / Rabbit serum looped peptides / Binding of a rabbit serum to linear peptides of protein N of SARS-CoV Urbani (Rabbit serum linear peptides) / Binding of a rabbit serum to looped/cyclic peptides of protein N of SARS-CoV Urbani (Rabbit serum looped peptides): unit not given here.

As to LLLVAAGMEAQFLYL, in assay [1], the “Binding of serum 1a to linear peptides of protein X1 of SARS-CoV Urbani” value was found to be 0.9, the “Binding of serum 1a to looped/cyclic peptide (PEPSCAN-ELISA)” value stood at 0.6, the “Binding of serum 1b to linear peptides of protein X1 of SARS-CoV Urbani” value worked out at 0.8 and the “Binding of serum 1b to looped/cyclic peptide (PEPSCAN-ELISA)” value is listed as 0.5. Further, in assay [1], the “Binding of serum 2 to linear peptides of protein X1 of SARS-CoV Urbani” value worked out at 0.6, the “Binding of serum 2 to looped/cyclic peptide (PEPSCAN-ELISA)” value worked out at 0.6, the “Binding of serum 6 to linear peptides of protein X1 of SARS-CoV Urbani” value was determined as 0.5 and the “Binding of serum 6 to looped/cyclic peptide (PEPSCAN-ELISA)” value was 0.3. In addition, in assay [1], the “Binding of serum 37 to linear peptides of protein X1 of SARS-CoV Urbani” value is 0.6, the “Binding of serum 37 to looped/cyclic peptide (PEPSCAN-ELISA)” value was 0.7, the “Binding of serum 62 to linear peptides of protein X1 of SARS-CoV Urbani” value turned out to be 0.6 and the “Binding of serum 62 to looped/cyclic peptide (PEPSCAN-ELISA)” value is on record as 0.7. Moreover, in assay [1], the “Binding of serum London to linear peptides of protein X1 of SARS-CoV Urbani” value worked out at 0.2, the “Binding of serum London to looped/cyclic peptide (PEPSCAN-ELISA)” value is 0.2, the “Binding of serum SARS-green to linear peptides of protein X1 of SARS-CoV Urbani” value came to 0.1 and the “Binding of serum SARS-green to looped/cyclic peptide (PEPSCAN-ELISA)” value was found to be 0.5. Also, in assay [1], the “Binding of serum SARS-yellow to linear peptides of protein X1 of SARS-CoV Urbani” value is given as 0.6 and the “Binding of serum SARS-yellow to looped/cyclic peptide (PEPSCAN-ELISA)” value came to 0.6. Further, in assay [2], the “Binding of Control Serum Blood-Bank to Looped peptides” value is reported as 0.5, the “Binding of Control serum Blood-bank to linear peptides” value was found to be 0.6, the “Binding of Control serum LUMC to linear peptides” value is given as 1.0 and the “Binding of Control serum LUMC to looped peptides” value was 0.7. In addition, in assay [3], the “Binding of a rabbit serum to linear peptides” value was determined as 0.2 and the “Binding of a rabbit serum to looped peptides” value worked out at 0.5.

In the case of LLQTLVLKMLHSSSL, in assay [1], the “Binding of serum 1a to linear peptides of protein X2” value is given as 0.6, the “Binding of serum 1a to looped/cyclic peptides of protein X2 of SARS-CoV Urbani” value was 0.5, the “Binding of serum 1b to linear peptides of protein X2” value worked out at 0.5 and the “Binding of serum 1b to looped/cyclic peptides of protein X2 of SARS-CoV Urbani” value is 0.5. For the same sequence, in assay [1], the “Binding of serum 2 to linear peptides of protein X2” value worked out at 0.3, the “Binding of serum 2 to looped/cyclic peptides of protein X2 of SARS-CoV Urbani” value was 0.3, the “Binding of serum 6 to linear peptides of protein X2” value amounted to 0.3 and the “Binding of serum 6 to looped/cyclic peptides of protein X2 of SARS-CoV Urbani” value was 0.7. Further, in assay [1], the “Binding of serum 37 to linear peptides of protein X2” value was determined as 0.5, the “Binding of serum 37 to looped/cyclic peptides of protein X2 of SARS-CoV Urbani” value came to 0.4, the “Binding of serum 62 to linear peptides of protein X2” value came to 0.5 and the “Binding of serum 62 to looped/cyclic peptides of protein X2 of SARS-CoV Urbani” value was found to be 0.6. In assay [1], the “Binding of serum London to linear peptides of protein X2” value was determined as 0.4, the “Binding of serum London to looped/cyclic peptides of protein X2 of SARS-CoV Urbani” value was 1.1, the “Binding of serum SARS-green to linear peptides of protein X2” value worked out at 0.5 and the “Binding of serum SARS-green to looped/cyclic peptides of protein X2 of SARS-CoV Urbani” value is listed as 0.3. In addition, in assay [1], the “Binding of serum SARS-yellow to linear peptides of protein X2” value is on record as 0.5 and the “Binding of serum SARS-yellow to looped/cyclic peptides of protein X2 of SARS-CoV Urbani” value amounted to 0.5. Besides, in assay [2], the “Binding of Control Serum Blood-Bank to Looped peptides” value was determined as 0.6, the “Binding of Control serum Blood-bank to linear peptides” value stood at 0.5, the “Binding of Control serum LUMC to linear peptides” value is listed as 0.3 and the “Binding of Control serum LUMC to looped peptides” value amounted to 0.6. For the same sequence, in assay [3], the “Binding of a rabbit serum to linear peptides” value is 0.2 and the “Binding of a rabbit serum to looped peptides” value is 0.4.

LLVAAGMEAQFLYLY: in assay [1], the “Binding of serum 1a to linear peptides of protein X1 of SARS-CoV Urbani” value is on record as 0.8, the “Binding of serum 1a to looped/cyclic peptide (PEPSCAN-ELISA)” value amounted to 0.6, the “Binding of serum 1b to linear peptides of protein X1 of SARS-CoV Urbani” value is 0.7 and the “Binding of serum 1b to looped/cyclic peptide (PEPSCAN-ELISA)” value amounted to 0.5. In addition, in assay [1], the “Binding of serum 2 to linear peptides of protein X1 of SARS-CoV Urbani” value came out at 0.6, the “Binding of serum 2 to looped/cyclic peptide (PEPSCAN-ELISA)” value is given as 0.6, the “Binding of serum 6 to linear peptides of protein X1 of SARS-CoV Urbani” value is recorded as 0.5 and the “Binding of serum 6 to looped/cyclic peptide (PEPSCAN-ELISA)” value came out at 0.3. In assay [1], the “Binding of serum 37 to linear peptides of protein X1 of SARS-CoV Urbani” value amounted to 0.6, the “Binding of serum 37 to looped/cyclic peptide (PEPSCAN-ELISA)” value is on record as 0.6, the “Binding of serum 62 to linear peptides of protein X1 of SARS-CoV Urbani” value was determined as 0.5 and the “Binding of serum 62 to looped/cyclic peptide (PEPSCAN-ELISA)” value is 0.6. Also, in assay [1], the “Binding of serum London to linear peptides of protein X1 of SARS-CoV Urbani” value is reported as 0.3, the “Binding of serum London to looped/cyclic peptide (PEPSCAN-ELISA)” value is on record as 0.2, the “Binding of serum SARS-green to linear peptides of protein X1 of SARS-CoV Urbani” value was found to be 0.1 and the “Binding of serum SARS-green to looped/cyclic peptide (PEPSCAN-ELISA)” value was 0.4. Moreover, in assay [1], the “Binding of serum SARS-yellow to linear peptides of protein X1 of SARS-CoV Urbani” value was 0.4 and the “Binding of serum SARS-yellow to looped/cyclic peptide (PEPSCAN-ELISA)” value stood at 0.5. In assay [2], the “Binding of Control Serum Blood-Bank to Looped peptides” value turned out to be 0.5, the “Binding of Control serum Blood-bank to linear peptides” value is on record as 0.5, the “Binding of Control serum LUMC to linear peptides” value came to 0.7 and the “Binding of Control serum LUMC to looped peptides” value amounted to 0.6. Further, in assay [3], the “Binding of a rabbit serum to linear peptides” value turned out to be 0.2 and the “Binding of a rabbit serum to looped peptides” value came out at 0.5.

Consider LPFGWLVIGVAFLAV, for which, in assay [1], the “Binding of serum 1a to linear peptides of protein X1 of SARS-CoV Urbani” value is 0.8, the “Binding of serum 1a to looped/cyclic peptide (PEPSCAN-ELISA)” value amounted to 0.5, the “Binding of serum 1b to linear peptides of protein X1 of SARS-CoV Urbani” value is on record as 0.6 and the “Binding of serum 1b to looped/cyclic peptide (PEPSCAN-ELISA)” value was found to be 0.3. For the same sequence, in assay [1], the “Binding of serum 2 to linear peptides of protein X1 of SARS-CoV Urbani” value was found to be 0.7, the “Binding of serum 2 to looped/cyclic peptide (PEPSCAN-ELISA)” value was 0.4, the “Binding of serum 6 to linear peptides of protein X1 of SARS-CoV Urbani” value turned out to be 0.5 and the “Binding of serum 6 to looped/cyclic peptide (PEPSCAN-ELISA)” value turned out to be 0.3. In assay [1], the “Binding of serum 37 to linear peptides of protein X1 of SARS-CoV Urbani” value stood at 0.7, the “Binding of serum 37 to looped/cyclic peptide (PEPSCAN-ELISA)” value is 0.6, the “Binding of serum 62 to linear peptides of protein X1 of SARS-CoV Urbani” value turned out to be 0.8 and the “Binding of serum 62 to looped/cyclic peptide (PEPSCAN-ELISA)” value worked out at 0.6. In addition, in assay [1], the “Binding of serum London to linear peptides of protein X1 of SARS-CoV Urbani” value came to 0.3, the “Binding of serum London to looped/cyclic peptide (PEPSCAN-ELISA)” value was determined as 0.2, the “Binding of serum SARS-green to linear peptides of protein X1 of SARS-CoV Urbani” value came to 0.3 and the “Binding of serum SARS-green to looped/cyclic peptide (PEPSCAN-ELISA)” value stood at 0.3. Besides, in assay [1], the “Binding of serum SARS-yellow to linear peptides of protein X1 of SARS-CoV Urbani” value is recorded as 0.7 and the “Binding of serum SARS-yellow to looped/cyclic peptide (PEPSCAN-ELISA)” value is 0.3. Also, in assay [2], the “Binding of Control Serum Blood-Bank to Looped peptides” value came out at 0.5, the “Binding of Control serum Blood-bank to linear peptides” value stood at 0.7, the “Binding of Control serum LUMC to linear peptides” value is listed as 0.7 and the “Binding of Control serum LUMC to looped peptides” value is reported as 0.4. Further, in assay [3], the “Binding of a rabbit serum to linear peptides” value is on record as 2.0 and the “Binding of a rabbit serum to looped peptides” value was 0.5.
